For five cell lines, relative viability results are on record in the supplement of paper PMC10307832.

Holding throughout (test): relative viability (nuclei count vs DMSO), 5 days (fraction); higher = more cells survive
Compound in experiment [1]: COc1cc2ncn(-c3cc(OCc4ccccc4C(F)(F)F)c(C(N)=O)s3)c2cc1OC + COc1cc2c(Oc3ccc(NC(=O)C4(C(=O)Nc5ccc(F)cc5)CC4)cc3F)ccnc2cc1OCCCN1CCOCC1 [Foretinib] (partner 0.25 µM)
In a few lines: (§1)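 After 5 days of treatment, lung cancer cells in 1536-well plates were fixed and stained in a single step (final 0.05% Triton X-100, 1% formaldehyde, 1 ug/ml Hoechst) and their nuclei counted on 4× images. Treatment had been applied by pin tool the day after seeding as one drug alone or as a fixed anchor-drug dose with five library-drug doses (not always all listed) in √10 steps. Relative viability is the nuclei count of treated wells divided by that of vehicle wells, and values are medians of duplicate plates.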

Compound in experiment [2]: COc1cc2ncn(-c3cc(OCc4ccccc4C(F)(F)F)c(C(N)=O)s3)c2cc1OC + CS(=O)(=O)N1CCN(Cc2cc3nc(-c4cccc5[nH]ncc45)nc(N4CCOCC4)c3s2)CC1 [Pictilisib] (partner 1 µM)
The method, boiled down: as §1

Compound in experiment [3]: COc1cc2ncn(-c3cc(OCc4ccccc4C(F)(F)F)c(C(N)=O)s3)c2cc1OC + NC(=O)Nc1cc(-c2cccc(F)c2)sc1C(=O)N[C@H]1CCCNC1 [AZD7762] (partner 0.2 µM)
In a few lines:
as §1

Compound in experiment [4]: COc1cc2ncn(-c3cc(OCc4ccccc4C(F)(F)F)c(C(N)=O)s3)c2cc1OC + O=C(CCCCCCC(=O)Nc1ccccc1)NO [Vorinostat] (partner 1 µM)
The method, boiled down: as §1

In the case of NCI-H2347, the relative viability in experiment [1] (first compound 0.05 µM) turned out to be 0.966; in experiment [1] (first compound 0.1581 µM), 0.916; in experiment [1] (first compound 0.5 µM), 0.98; in experiment [1] (first compound 1.581 µM), 0.651; in experiment [1] (first compound 5 µM) it was 0.428; in experiment [2] (first compound 0.05 µM), 0.689. The relative viability in experiment [2] (first compound 0.1581 µM) was found to be 0.435; in experiment [2] (first compound 0.5 µM), 0.503; in experiment [2] (first compound 1.581 µM) it was 0.394; in experiment [2] (first compound 5 µM), 0.375; in experiment [3] (first compound 0.05 µM), 0.832; in experiment [3] (first compound 0.1581 µM), 0.726. In addition, the relative viability in experiment [3] (first compound 0.5 µM) is 0.716; in experiment [3] (first compound 1.581 µM) it was 0.435; in experiment [3] (first compound 5 µM), 0.393; in experiment [4] (first compound 0.05 µM), 0.551; in experiment [4] (first compound 0.1581 µM), 0.658; in experiment [4] (first compound 0.5 µM), 0.407. Also, the figures for the relative viability in experiment [4] (first compound 1.581 µM) and in experiment [4] (first compound 5 µM) were 0.445 and 0.302, respectively.

As for NCI-H2126, the relative viability in experiment [1] (first compound 0.05 µM) came out at 1.21; in experiment [1] (first compound 0.1581 µM) it was 1.26; in experiment [1] (first compound 0.5 µM) it was 0.672; in experiment [1] (first compound 1.581 µM), 0.365; in experiment [1] (first compound 5 µM) it was 0.318; in experiment [2] (first compound 0.05 µM) it was 0.462. Also, the relative viability in experiment [2] (first compound 0.1581 µM) was 0.517; in experiment [2] (first compound 0.5 µM), 0.477; in experiment [2] (first compound 1.581 µM), 0.254; in experiment [2] (first compound 5 µM), 0.229; in experiment [3] (first compound 0.05 µM), 1.05; in experiment [3] (first compound 0.1581 µM), 1.03. Besides, the relative viability in experiment [3] (first compound 0.5 µM) stood at 0.881; in experiment [3] (first compound 1.581 µM), 0.446; in experiment [3] (first compound 5 µM), 0.258; in experiment [4] (first compound 0.05 µM), 0.847; in experiment [4] (first compound 0.1581 µM), 0.759; in experiment [4] (first compound 0.5 µM) it was 0.401. Besides, the relative viability in experiment [4] (first compound 1.581 µM) was 0.236; in experiment [4] (first compound 5 µM) it was 0.216.

As for HCC-827, the relative viability in experiment [1] (first compound 0.05 µM) was 1.04; in experiment [1] (first compound 0.1581 µM), 0.987; in experiment [1] (first compound 0.5 µM) it was 0.718; in experiment [1] (first compound 1.581 µM), 0.277; in experiment [1] (first compound 5 µM), 0.213; in experiment [2] (first compound 0.05 µM) it was 0.917. The relative viability in experiment [2] (first compound 0.1581 µM) came to 1.13; in experiment [2] (first compound 0.5 µM), 0.968; in experiment [2] (first compound 1.581 µM), 0.77; in experiment [2] (first compound 5 µM), 0.56; in experiment [3] (first compound 0.05 µM), 0.229; in experiment [3] (first compound 0.1581 µM) it was 0.246. The relative viability in experiment [3] (first compound 0.5 µM) worked out at 0.185; in experiment [3] (first compound 1.581 µM), 0.201; in experiment [3] (first compound 5 µM) it was 0.161; in experiment [4] (first compound 0.05 µM), 0.995; in experiment [4] (first compound 0.1581 µM), 0.887; in experiment [4] (first compound 0.5 µM), 0.763. The relative viability turned out to be 0.376 in experiment [4] (first compound 1.581 µM) and 0.445 in experiment [4] (first compound 5 µM).

Regarding NCI-H3122, the relative viability in experiment [1] (first compound 0.05 µM) is 0.976; in experiment [1] (first compound 0.1581 µM) it was 0.93; in experiment [1] (first compound 0.5 µM), 0.241; in experiment [1] (first compound 1.581 µM) it was 0.123; in experiment [1] (first compound 5 µM), 0.148; in experiment [2] (first compound 0.05 µM), 0.578. Moreover, the relative viability in experiment [2] (first compound 0.1581 µM) came out at 0.269; in experiment [2] (first compound 0.5 µM), 0.282; in experiment [2] (first compound 1.581 µM) it was 0.212; in experiment [2] (first compound 5 µM), 0.184; in experiment [3] (first compound 0.05 µM), 1.07; in experiment [3] (first compound 0.1581 µM), 0.81. The relative viability in experiment [3] (first compound 0.5 µM) came out at 0.359; in experiment [3] (first compound 1.581 µM), 0.133; in experiment [3] (first compound 5 µM) it was 0.144; in experiment [4] (first compound 0.05 µM), 1; in experiment [4] (first compound 0.1581 µM), 0.596; in experiment [4] (first compound 0.5 µM) it was 0.357. The relative viability in experiment [4] (first compound 1.581 µM) and in experiment [4] (first compound 5 µM) was 0.13 in each case.

Regarding HOP-62, the relative viability in experiment [1] (first compound 0.05 µM) turned out to be 1.16; in experiment [1] (first compound 0.1581 µM), 1; in experiment [1] (first compound 0.5 µM) it was 1.03; in experiment [1] (first compound 1.581 µM), 0.295; in experiment [1] (first compound 5 µM), 0.139; in experiment [2] (first compound 0.05 µM), 0.753. Also, the relative viability is 0.805 in experiment [2] (first compound 0.1581 µM); 0.566 in experiment [2] (first compound 0.5 µM); 0.123 in experiment [2] (first compound 1.581 µM); 0.0836 in experiment [2] (first compound 5 µM); 0.523 in experiment [3] (first compound 0.05 µM); 0.714 in experiment [3] (first compound 0.1581 µM). Further, the relative viability amounted to 0.316 in experiment [3] (first compound 0.5 µM); 0.118 in experiment [3] (first compound 1.581 µM); 0.0755 in experiment [3] (first compound 5 µM); 0.687 in experiment [4] (first compound 0.05 µM); 0.706 in experiment [4] (first compound 0.1581 µM); 0.202 in experiment [4] (first compound 0.5 µM). Besides, the values for the relative viability in experiment [4] (first compound 1.581 µM) and in experiment [4] (first compound 5 µM) were 0.129 and 0.0896, respectively.
